According to article PMC6060383, “Synthesis and pharmacological evaluation of novel isoquinoline N-sulphonylhydrazones designed as ROCK inhibitors” (Journal of Enzyme Inhibition and Medicinal Chemistry, 2018):
In brackets after ≈: the same amount, converted by molar mass. Entries after “also recorded” stand apart in the source; their conditions may differ.

What was measured:
[1] = molecular target: T1, ROCK1 human recombinant enzyme (Homo sapiens, UniProt Q13464); test: ROCK1 inhibition assay (Eurofins-Cerep, phosphorylation of Ulight-RRRSLLE substrate); type: biochemical; conditions: for inhibition at 3 µM: screening concentration 3 μM, average of two experiments; for IC50: human recombinant ROCK1, five-point assay, mean of two experiments
T1 construct: purchased EUROFINS-CEREP France (contract assay, study numbers 100033685 and 100040481); host or cells: Sf9 insect cells
Experimental: (§1) The analysis was performed using software developed at Cerep (Hill software) and GraphPad Prism® 5.0 (GraphPad Software, Inc., San Diego, CA) and validated through comparison with results generated using the SigmaPlot 4.0 software.
(§2) Prior to this assay, we evaluated the solubility of these compounds in water (buffer pH 7.4) to ensure that the inhibition percentages were not influenced by the precipitation of the compounds under test conditions.

[2] = molecular target: T2, ROCK2 human recombinant enzyme (Homo sapiens, UniProt O75116); test: ROCK2 inhibition assay (Eurofins-Cerep, phosphorylation of Ulight-RRRSLLE substrate); type: biochemical; conditions: for inhibition at 3 µM: screening concentration 3 μM, average of two experiments; for IC50: human recombinant ROCK2, five-point assay, mean of two experiments
T2 construct: purchased EUROFINS-CEREP France (contract assay, study numbers 100033685 and 100040481); host or cells: Sf21 insect cells
Experimental: as §1, §2

[3] = Water solubility assay (UV spectrophotometric method); type: physicochemical; conditions: aqueous buffer, thermodynamic from solid, water (buffer pH 7.4), stirring 4 h at 37 °C
Experimental: The solubility assay was performed considering the absorptivity of compounds under ultraviolet spectroscopy as described by Schneider et al.[20] Assay wavelength was determined through λmax characteristic of each compound. Saturated aqueous solutions were prepared (0.8–1.0 mg/mL) and kept under stirring for 4 h at 37 °C. The supernatant was filtered in […] filters and transferred to a quartz cuvette (10 mm) for spectra acquisition. Solubility was determined by linear regression used as Excel graph plots, solutions were prepared by dilutions of the original solution in methanol. Data were collected in triplicate and the mean values were used to create the graph plots. The correlation coefficient (R^2) values were between 0.9982 and 1.
The N-sulphonylhydrazone derivatives 5a–h were evaluated for their ability to inhibit both ROCK1 and ROCK2 isoforms by measuring the phosphorylation of the Ulight-RRRSLLE substrate using human recombinant enzymes expressed in Sf9[23] and Sf21^24 cells, respectively. Prior to this assay, we evaluated the solubility of these compounds in water (buffer pH 7.4) to ensure that the inhibition percentages were not influenced by the precipitation of the compounds under test conditions. The enzymatic assay was initially performed at a screening concentration of 3 μM, which is capable of guaranteeing the solubility of most of the compounds, and the obtained results are shown in Table 2.

MDA-MB 231 cells [4] = test: Cell-based scratch assay (cell migration); design: species or system human; conditions: 10 or 30 μM, 24 h
Experimental: (§3) The human mammary gland/breast epithelial cell line MDA-MB 231 was obtained from the American Type Culture Collection (ATCC® HTB-26™) and this use was approved by the Ethics Committee for Animal Care and Use in Scientific Research from the Federal University of Rio de Janeiro. Cells were routinely grown in RPMI medium containing 10% foetal bovine serum (FBS), 1% L-glutamine and 1% penicillin-streptomycin, in a humidified 5% CO2 atmosphere at 37 °C. Cells were cultured up to 70–100% confluence and then some cultures were treated with the compounds at different concentrations for 24 or 48 h. All cell culture reagents were purchased from Invitrogen (São Paulo, Brazil).
Cells were cultured in 24-well culture plates for 24 h up to 90–100% confluence. Scratched wound lines were created with the help of a 200 μl micropipette tip. […] Images were acquired with an Olympus DP71 digital camera (Olympus, Japan) and the wound area was quantified using Fiji software (based on ImageJ, http://imageJ.nih.gov/ij/) from three different experiments.
The functions of Rho-kinase include the regulation of cellular contraction, motility, morphology, polarity, division, and gene expression. Therefore, we performed a cell-based scratch assay followed by the quantification of the wounded area to analyse whether compounds 5b (LASSBio-2020) and 11 (LASSBio-2065) altered cell migration. […]

MDA-MB 231 cells [5] = test: Plasma membrane integrity assay (LDH); type: cell-based, human; conditions: 0.1 to 30 µM, 24 and 48 h
Experimental: as §3
To measure plasma membrane integrity, we assayed serum lactate dehydrogenase (LDH) levels and calculated percentages of LDH release to the medium. LDH activity was measured spectrophotometrically using a commercial kit (Doles, Goiás, Brazil). […] Then, 10 μl of NAD were added and absorbance intensities were measured in a microplate reader (FlexStation® 3 Reader, Molecular Devices) at 490 nm. The percentage of LDH release was calculated by ([LDH] sample ×100)/total [LDH]. […]
We also analysed the plasma membrane integrity by measuring the serum lactate dehydrogenase (LDH) levels in the culture medium to confirm the cell viability data. […]

IKK-β = molecular target: T3, IKK-β (Homo sapiens, UniProt O14920); test: IKK-β inhibition screening; type: biochemical; conditions: screening concentration of 10 μM; data not shown
T3 sequence (O14920 1-756): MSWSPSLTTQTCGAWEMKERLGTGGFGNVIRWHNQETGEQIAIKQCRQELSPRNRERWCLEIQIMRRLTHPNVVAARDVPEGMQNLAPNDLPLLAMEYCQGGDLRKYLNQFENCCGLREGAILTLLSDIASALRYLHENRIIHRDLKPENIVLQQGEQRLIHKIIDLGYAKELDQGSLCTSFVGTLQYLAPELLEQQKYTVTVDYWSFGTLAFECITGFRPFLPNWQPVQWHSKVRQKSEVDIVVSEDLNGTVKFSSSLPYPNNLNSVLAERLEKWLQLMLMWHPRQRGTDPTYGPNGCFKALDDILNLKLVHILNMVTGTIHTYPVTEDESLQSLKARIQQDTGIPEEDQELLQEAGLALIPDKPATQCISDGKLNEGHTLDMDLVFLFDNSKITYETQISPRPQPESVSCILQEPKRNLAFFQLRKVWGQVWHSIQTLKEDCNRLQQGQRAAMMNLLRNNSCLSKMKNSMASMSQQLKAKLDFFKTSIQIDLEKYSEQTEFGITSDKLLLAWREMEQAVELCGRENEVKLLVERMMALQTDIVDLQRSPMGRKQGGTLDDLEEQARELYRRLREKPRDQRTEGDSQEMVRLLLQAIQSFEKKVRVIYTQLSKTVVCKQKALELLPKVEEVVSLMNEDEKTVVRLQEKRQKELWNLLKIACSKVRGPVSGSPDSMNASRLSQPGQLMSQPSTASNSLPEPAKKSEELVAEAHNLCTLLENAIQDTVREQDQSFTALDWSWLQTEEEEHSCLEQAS
Text: Furthermore, considering that 2 (LASSBio-1524) was used in the structural design of this new family of ROCK inhibitors we also investigated the ability of 5b (LASSBio-2020) and 11 (LASSBio-2065) to inhibit IKK-β.

[6] = Chemical stability study (pH 2.0 and pH 7.4 buffers); type: physicochemical; conditions: 37 °C
Experimental: Two microliters ([…]) of a concentrated solution of the compound under examination (40 mM stock solution solubilized in DMSO) and 248 μL of acid (0.2 M potassium chloride and 0.2 M HCl; pH 2.0) or neutral (phosphate dibasic, pH 7.4) buffer were added to a 2 ml Eppendorf microtube. After vortexing, the mixture was placed in a water bath at 37 °C under vigorous stirring for 0, 30, 60, 120, and 240 min. After each reaction, 248 μL of basic buffer (phosphate buffer, pH 8.4) was added to neutralize the pH of the medium in the experiments using acidic buffer. The compound was extracted using 1 ml of acetonitrile followed by vigorous vortexing and freezing of the aqueous phase (−10 °C). The organic phase was separated, filtered, and analysed using an HPLC-PDA (acetonitrile/water […], 0.05% of TFA).
Due to the possible chemical instability of the imine functional group present in the N-sulphonylhydrazone framework, the stability profiles of compounds 5b (LASSBio-2020) and 11 (LASSBio-2065) were determined. The study was conducted under two conditions, pH 2.0 and pH 7.4, to mimic the acidic stomach and the neutral plasma environments, respectively. The compounds were examined in the presence of acid (pH 2) and neutral (pH 7.4) buffers with stirring for 240 min at a controlled temperature (37 °C).

[7] = ROCK inhibition assays, 1 to 50 µM

T1 sequence (Q13464 whole entry): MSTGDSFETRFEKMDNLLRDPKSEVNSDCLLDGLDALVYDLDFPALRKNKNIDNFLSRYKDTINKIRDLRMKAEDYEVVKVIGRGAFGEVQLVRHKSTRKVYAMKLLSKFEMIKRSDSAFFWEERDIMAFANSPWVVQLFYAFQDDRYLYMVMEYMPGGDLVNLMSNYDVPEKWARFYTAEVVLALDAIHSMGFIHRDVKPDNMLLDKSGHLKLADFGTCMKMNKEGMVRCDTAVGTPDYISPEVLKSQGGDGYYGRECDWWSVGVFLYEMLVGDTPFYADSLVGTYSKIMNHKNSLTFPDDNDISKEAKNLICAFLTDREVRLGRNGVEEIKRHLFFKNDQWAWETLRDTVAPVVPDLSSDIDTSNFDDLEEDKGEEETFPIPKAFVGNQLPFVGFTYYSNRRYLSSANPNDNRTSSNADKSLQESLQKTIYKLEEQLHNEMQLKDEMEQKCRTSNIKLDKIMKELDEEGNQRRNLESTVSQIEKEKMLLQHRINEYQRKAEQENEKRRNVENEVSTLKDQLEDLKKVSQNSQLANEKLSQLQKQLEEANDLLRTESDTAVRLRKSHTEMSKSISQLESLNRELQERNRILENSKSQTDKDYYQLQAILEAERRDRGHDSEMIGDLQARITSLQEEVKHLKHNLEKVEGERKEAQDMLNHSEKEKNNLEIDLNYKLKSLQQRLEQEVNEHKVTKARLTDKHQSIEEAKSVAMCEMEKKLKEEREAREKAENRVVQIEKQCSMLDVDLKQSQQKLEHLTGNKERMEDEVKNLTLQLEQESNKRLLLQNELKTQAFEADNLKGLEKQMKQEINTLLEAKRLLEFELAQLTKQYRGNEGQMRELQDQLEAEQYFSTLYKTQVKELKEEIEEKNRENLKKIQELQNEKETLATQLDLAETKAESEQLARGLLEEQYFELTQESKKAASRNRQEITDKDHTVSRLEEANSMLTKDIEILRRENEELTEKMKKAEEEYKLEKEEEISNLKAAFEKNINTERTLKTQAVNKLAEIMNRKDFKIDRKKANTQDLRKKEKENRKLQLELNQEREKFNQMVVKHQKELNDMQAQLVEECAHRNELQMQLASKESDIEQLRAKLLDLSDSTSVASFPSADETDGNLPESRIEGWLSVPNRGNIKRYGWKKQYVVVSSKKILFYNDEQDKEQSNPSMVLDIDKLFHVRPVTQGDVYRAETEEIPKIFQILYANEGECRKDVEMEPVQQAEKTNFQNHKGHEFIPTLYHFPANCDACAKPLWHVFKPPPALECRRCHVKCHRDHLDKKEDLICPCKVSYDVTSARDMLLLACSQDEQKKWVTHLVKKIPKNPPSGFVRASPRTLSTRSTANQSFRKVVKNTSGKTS
T2 sequence (O75116 1-543 limits assumed): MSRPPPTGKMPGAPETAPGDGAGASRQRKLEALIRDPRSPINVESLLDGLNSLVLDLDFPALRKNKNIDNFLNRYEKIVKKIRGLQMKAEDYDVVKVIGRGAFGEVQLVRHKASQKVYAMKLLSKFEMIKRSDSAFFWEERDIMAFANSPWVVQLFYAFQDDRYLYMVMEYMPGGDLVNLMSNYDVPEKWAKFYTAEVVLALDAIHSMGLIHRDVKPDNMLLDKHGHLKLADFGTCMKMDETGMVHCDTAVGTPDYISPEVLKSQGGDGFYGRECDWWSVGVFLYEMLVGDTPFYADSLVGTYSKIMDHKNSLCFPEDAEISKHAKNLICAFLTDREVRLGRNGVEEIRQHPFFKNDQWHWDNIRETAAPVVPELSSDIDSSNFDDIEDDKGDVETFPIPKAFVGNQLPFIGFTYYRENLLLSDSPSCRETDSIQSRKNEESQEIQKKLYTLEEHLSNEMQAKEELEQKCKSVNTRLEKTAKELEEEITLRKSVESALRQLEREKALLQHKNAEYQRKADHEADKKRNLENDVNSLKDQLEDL

Row | Structure (SMILES) | inhibition at 3 µM [1] | inhibition at 3 µM [2] | solubility at 4 h [3] | melting point | further results
1 | CN(C)c1ccc(/C=N/NS(=O)(=O)c2cccc3cnccc23)cc1 [Compound 5a, (E)-N′-(4-(dimethylamino)benzylidene)isoquinoline-5-sulphonohydrazide] | 4.1% | 0.6% | 5.4 µM (≈ 1.91 µg/mL) | 165 °C | –
2 | O=[N+]([O-])c1ccc(/C=N/NS(=O)(=O)c2cccc3cnccc23)cc1 [Compound 5c, (E)-N′-(4-nitrobenzylidene)isoquinoline-5-sulphonohydrazide] | 1.1% | 8.1% | 26 µM (≈ 9.27 µg/mL) | 168 °C | –
3 | O=S(=O)(N/N=C/c1cccnc1)c1cccc2cnccc12 [Compound 5d, (E)-N′-(pyridin-3-ylmethylene)isoquinoline-5-sulphonohydrazide] | 4.5% | 7.6% | > 64 µM | 168 °C | –
4 | CC(=O)Nc1ccc(/C=N/NS(=O)(=O)c2cccc3cnccc23)cc1 [Compound 5e, (E)-N-(4-((2-(isoquinolin-5-ylsulphonyl)hydrazono)methyl)phenyl)acetamide] | 4.6% | -9.1% | 4.3 µM (≈ 1.58 µg/mL) | 173 °C | –
5 | O=S(=O)(N/N=C/c1ccc(B(O)O)cc1)c1cccc2cnccc12 [Compound 5f, (E)-(4-((2-(isoquinolin-5-ylsulphonyl)hydrazono)methyl)phenyl)boronic acid] | 2.7% | 7.3% | 58 µM (≈ 20.6 µg/mL) | > 250 °C | –
6 | O=S(=O)(N/N=C/c1ccc(-c2ccccc2)cc1)c1cccc2cnccc12 [Compound 5g, (E)-N′-([1,1'-biphenyl]-4-ylmethylene)isoquinoline-5-sulphonohydrazide] | -1.1% | 2.4% | < 0.5 µM | 166 °C | –
7 | Cl.O=S(=O)(N/N=C/C1CCNCC1)c1cccc2cnccc12 [Compound 5h, (E)-N′-(piperidin-4-ylmethylene)isoquinoline-5-sulphonohydrazide hydrochloride] | 6.9% | 3.9% | > 84.5 µM | 186 °C | –
8 | O=C(N/N=C/c1ccccc1)c1cccc2cnccc12 [Compound 10, (E)-N′-benzylidene isoquinoline-5-carbohydrazide] | – | – | – | – | ROCK1 inhibition (result in words) [1, 7]: completely inactive; IC50 ([1]; 1 to 50 µM): > 50 µM; ROCK2 inhibition (result in words) [2, 7]: completely inactive; IC50 ([2]; 1 to 50 µM): > 50 µM
9 | CN(/N=C/c1ccccc1)S(=O)(=O)c1cccc2cnccc12 [Compound 11, (E)-N′-benzylidene-N-methylisoquinoline-5-sulphonohydrazide] | – | – | – | 108 °C | decrease in the IC50 for ROCK1 relative to 5b ([1]; N-methylated 11 versus 5b): approximately 4 fold; IC50 ([1]; 1 to 50 µM): 3.1 µM; decrease in the IC50 for ROCK2 relative to 5b ([2]; N-methylated 11 versus 5b): ~1.8 fold; IC50 ([2]; 1 to 50 µM): 3.8 µM; effect on cell migration (result in words) (MDA-MB 231 cells [4]): inhibited MDA-MB 231 cell migration; also recorded: effective at inhibiting cell migration; LDH levels in culture medium / cytotoxicity in LDH assay (result in words) (MDA-MB 231 cells [5]): not altered; IKK-β inhibition (result in words) (IKK-β): none of these N-sulphonylhydrazone derivatives was able to inhibit IKK-β; recovery percentage under acidic conditions ([6]; pH 2, after 30 min of incubation): 88%; degradation in neutral medium ([6]; pH 7.4, after 4 h): less than 20%
